Measured values published in ChEMBL document CHEMBL1201862, “PubChem BioAssay data set” (2004).
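Cells were grown in 96-well plates and exposed to each compound for 48 hours at five concentrations; endpoints were interpolated linearly between bracketing concentrations, or set to the highest concentration if not reached. GI50 = concentration required for 50% inhibition of growth.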 Active and inactive are the calls of the source. Rule as the data show it: active = GI50 up to about 1.1 µM and inactive = higher.

Key:
Assay in all cases: inhibition of tumour cell growth, NCI panel, 48 h
NCI-H23 = test system: NCI-H23
SK-MEL-5 = test system: SK-MEL-5
RPMI-8226 = test system: RPMI-8226
SR = test system: SR
OVCAR-3 = test system: OVCAR-3
CCRF-CEM = test system: CCRF-CEM
HOP-62 = test system: HOP-62
SK-OV-3 = test system: SK-OV-3
Malme-3M = test system: Malme-3M
A549 = test system: A549
RXF 393 = test system: RXF 393
NCI/ADR-RES = test system: NCI/ADR-RES
SNB-19 = test system: SNB-19
EKVX = test system: EKVX
UACC-62 = test system: UACC-62
SF-539 = test system: SF-539
CAKI-1 = test system: CAKI-1
K562 = test system: K562
KM12 = test system: KM12
IGROV-1 = test system: IGROV-1

Measured: GI50

NS(=O)(=O)c1cc(C(=O)O)c(Cl)c([N+](=O)[O-])c1Cl
inactive: NCI-H23 > 100 µM | SK-MEL-5 > 100 µM | RPMI-8226 > 100 µM | SR > 100 µM | OVCAR-3 > 100 µM | CCRF-CEM > 100 µM | HOP-62 > 100 µM | SK-OV-3 > 100 µM | Malme-3M > 100 µM | A549 > 100 µM | RXF 393 > 100 µM | NCI/ADR-RES > 100 µM | SNB-19 > 100 µM | EKVX > 100 µM | UACC-62 > 100 µM | SF-539 > 100 µM | CAKI-1 > 100 µM | K562 > 100 µM | KM12 > 100 µM | IGROV-1 > 100 µM

COc1cc(/C=C2\N=C(c3ccccc3)N(c3ccc(S(=O)(=O)Nc4nccs4)cc3)C2=O)ccc1O
inactive: NCI-H23 > 100 µM | SK-MEL-5 75.9 µM | RPMI-8226 45 µM | SR 59.7 µM | OVCAR-3 > 100 µM | CCRF-CEM 70.5 µM | HOP-62 61.8 µM | SK-OV-3 > 100 µM | Malme-3M > 100 µM | A549 > 100 µM | RXF 393 62.2 µM | NCI/ADR-RES > 100 µM | SNB-19 > 100 µM | EKVX 63.8 µM | UACC-62 43.9 µM | SF-539 79.4 µM | CAKI-1 > 100 µM | K562 55.8 µM | KM12 > 100 µM | IGROV-1 > 100 µM

Cc1cc(S(=O)(=O)NC2=Nc3ccc(Cl)cc3C(c3ccccc3)N2)c(S)cc1Cl (stereo not given)
inactive: NCI-H23 > 100 µM | SK-MEL-5 > 100 µM | RPMI-8226 97.1 µM | SR 14.3 µM | OVCAR-3 > 100 µM | CCRF-CEM 57.8 µM | HOP-62 81.3 µM | SK-OV-3 > 100 µM | Malme-3M > 100 µM | A549 17.8 µM | RXF 393 > 100 µM | NCI/ADR-RES > 100 µM | SNB-19 28.5 µM | EKVX > 100 µM | UACC-62 > 100 µM | SF-539 > 100 µM | CAKI-1 > 100 µM | K562 85.5 µM | KM12 92.9 µM | IGROV-1 > 100 µM

CCOC1=NC(C(F)(F)F)(C(F)(F)F)N=C(/N=C(/N)N(C)C(C(C)C)P(=O)(OC(C)C)OC(C)C)O1 (stereo not given)
inactive: NCI-H23 95.3 µM | SK-MEL-5 59.8 µM | RPMI-8226 45.9 µM | SR 55.3 µM | OVCAR-3 67.6 µM | CCRF-CEM 23.8 µM | HOP-62 > 100 µM | SK-OV-3 > 100 µM | Malme-3M 54.1 µM | A549 > 100 µM | RXF 393 41 µM | NCI/ADR-RES 31.3 µM | SNB-19 > 100 µM | EKVX 52 µM | UACC-62 54.7 µM | SF-539 > 100 µM | CAKI-1 > 100 µM | K562 34.7 µM | KM12 78.2 µM | IGROV-1 69.8 µM

Clc1ccc(-c2nn3c(-c4ccncc4)nnc3s2)cc1
inactive: NCI-H23 > 100 µM | SK-MEL-5 > 100 µM | RPMI-8226 > 100 µM | SR > 100 µM | OVCAR-3 > 100 µM | CCRF-CEM > 100 µM | HOP-62 20.8 µM | SK-OV-3 40.1 µM | Malme-3M > 100 µM | A549 > 100 µM | RXF 393 25.6 µM | NCI/ADR-RES > 100 µM | SNB-19 59.2 µM | EKVX > 100 µM | UACC-62 > 100 µM | SF-539 > 100 µM | CAKI-1 > 100 µM | K562 > 100 µM | KM12 > 100 µM | IGROV-1 64.4 µM

CN(C)C(=O)OC1=CC2CCC(C1)N2C (stereo not given)
inactive: NCI-H23 > 100 µM | SK-MEL-5 > 100 µM | RPMI-8226 > 100 µM | SR 47 µM | OVCAR-3 > 100 µM | CCRF-CEM 28.8 µM | HOP-62 > 100 µM | SK-OV-3 > 100 µM | Malme-3M > 100 µM | A549 70.8 µM | RXF 393 > 100 µM | NCI/ADR-RES 91.6 µM | SNB-19 > 100 µM | EKVX > 100 µM | UACC-62 > 100 µM | SF-539 > 100 µM | CAKI-1 > 100 µM | K562 88.7 µM | KM12 > 100 µM | IGROV-1 71.4 µM

COC(=O)C[C@H](COCc1ccccc1)NC(=O)C[C@H](COCc1ccccc1)NC(=O)OC(C)(C)C
inactive: NCI-H23 35.3 µM | SK-MEL-5 45.8 µM | RPMI-8226 39.5 µM | SR 39.1 µM | OVCAR-3 27.7 µM | CCRF-CEM > 100 µM | HOP-62 21.6 µM | SK-OV-3 23.2 µM | Malme-3M 36.6 µM | A549 24.2 µM | RXF 393 29.6 µM | NCI/ADR-RES 21.8 µM | SNB-19 21.2 µM | EKVX 18.9 µM | UACC-62 36.6 µM | SF-539 34.7 µM | CAKI-1 29.7 µM | K562 40.2 µM | KM12 45.3 µM | IGROV-1 33.7 µM

COC(=O)c1c(C)[nH]c2c1cc(O)c1nc(C)c(C)nc12
inactive: NCI-H23 49.4 µM | SK-MEL-5 48.5 µM | RPMI-8226 > 100 µM | SR > 100 µM | OVCAR-3 > 100 µM | CCRF-CEM > 100 µM | HOP-62 18.7 µM | SK-OV-3 70 µM | Malme-3M > 100 µM | A549 > 100 µM | RXF 393 28 µM | NCI/ADR-RES > 100 µM | SNB-19 > 100 µM | EKVX > 100 µM | UACC-62 43 µM | SF-539 34.3 µM | CAKI-1 > 100 µM | K562 > 100 µM | KM12 > 100 µM | IGROV-1 > 100 µM

CC(C)(C)OC(=O)NCC(=O)N(CCc1ccc(Cl)c(Cl)c1)CCN1CCCC1
inactive: NCI-H23 17.1 µM | SK-MEL-5 13.7 µM | RPMI-8226 5.01 µM | SR 14.5 µM | OVCAR-3 16.7 µM | CCRF-CEM 10.6 µM | HOP-62 13.5 µM | SK-OV-3 14.9 µM | Malme-3M 19.8 µM | A549 17.7 µM | RXF 393 14.9 µM | NCI/ADR-RES 15.3 µM | SNB-19 17.8 µM | EKVX 21.7 µM | UACC-62 17.4 µM | SF-539 16.8 µM | CAKI-1 18.4 µM | K562 8.11 µM | KM12 16.3 µM | IGROV-1 15.8 µM

C#C[C@]1(O)CC[C@H]2[C@@H]3CCC4=C/C(=N\OCCN5CCCCC5)CC[C@]4(C)[C@H]3CC[C@@]21C
inactive: NCI-H23 3.83 µM | SK-MEL-5 2.23 µM | RPMI-8226 2.43 µM | SR 1.48 µM | OVCAR-3 5.15 µM | CCRF-CEM 4.54 µM | HOP-62 11 µM | SK-OV-3 16 µM | Malme-3M 8.79 µM | A549 7.08 µM | RXF 393 2.86 µM | NCI/ADR-RES 3.52 µM | SNB-19 6.9 µM | EKVX 8.15 µM | UACC-62 3.32 µM | SF-539 4.11 µM | CAKI-1 6.21 µM | K562 1.65 µM | KM12 3.44 µM | IGROV-1 7.18 µM

O=C(OCCN=c1c2ccccc2ccc2ccccc12)c1cc([N+](=O)[O-])cc([N+](=O)[O-])c1
inactive: NCI-H23 > 100 µM | SK-MEL-5 > 100 µM | RPMI-8226 > 100 µM | SR > 100 µM | OVCAR-3 40.6 µM | CCRF-CEM > 100 µM | HOP-62 > 100 µM | SK-OV-3 > 100 µM | Malme-3M 21.5 µM | A549 > 100 µM | RXF 393 > 100 µM | NCI/ADR-RES > 100 µM | SNB-19 > 100 µM | EKVX > 100 µM | UACC-62 > 100 µM | SF-539 > 100 µM | CAKI-1 > 100 µM | K562 > 100 µM | KM12 > 100 µM | IGROV-1 > 100 µM

C=C(C)C(O)C(O)C[C@@H](C)C1CC[C@]23C[C@]12CCC1[C@@]2(C)CCC(OC(C)=O)C(C)(C)C2CC(OC2OC(CO)C(O)C(O)C2O)[C@]13C (stereo not given in full)
inactive: NCI-H23 19.2 µM | SK-MEL-5 18.9 µM | RPMI-8226 21.5 µM | SR 18.7 µM | OVCAR-3 17.6 µM | CCRF-CEM 14.2 µM | HOP-62 16.7 µM | SK-OV-3 20.9 µM | Malme-3M 17.5 µM | A549 50 µM | RXF 393 15.4 µM | NCI/ADR-RES > 100 µM | SNB-19 20 µM | EKVX 42.2 µM | UACC-62 17.7 µM | SF-539 14.6 µM | CAKI-1 > 100 µM | K562 20.1 µM | KM12 17.7 µM | IGROV-1 15.3 µM

OC1(c2ccc(Cl)cc2)c2c(ccc3c2OCO3)C2=NCCN21 (stereo not given)
inactive: NCI-H23 63 µM | SK-MEL-5 17.2 µM | RPMI-8226 19.2 µM | SR 21.5 µM | OVCAR-3 54.6 µM | CCRF-CEM 37.9 µM | HOP-62 58.3 µM | SK-OV-3 68.1 µM | Malme-3M 1.23 µM | A549 70.3 µM | RXF 393 26.7 µM | NCI/ADR-RES > 100 µM | SNB-19 73.6 µM | EKVX 75 µM | UACC-62 19 µM | SF-539 36.1 µM | CAKI-1 46.9 µM | K562 26.2 µM | KM12 19.6 µM | IGROV-1 20.5 µM
